Values of other authors, collected in patent publication US6387915B2, “Isoxazole-sulfonamide endothelin antagonists” (Pfizer Inc., priority 2000, dated 2002).

How the values were obtained:
[1] = in man; Hypertension (1999) 33, 581-585
[2] = hypertensive patients; H. Krum et al., New Eng. J. Med. (1998) 338, 784-790
neointimal formation = details: S. Douglas et al., Circ. Res, 75, 1994

CCCC[C@@H](NC(=O)[C@@H](Cc1cn(C(=O)OC)c2ccccc12)NC(=O)[C@H](CC(C)(C)C)NC(=O)N1[C@H](C)CCC[C@@H]1C)C(=O)O [BQ-788]
effect on peripheral resistance [1]: increase peripheral resistance

COc1ccccc1Oc1c(NS(=O)(=O)c2ccc(C(C)(C)C)cc2)nc(-c2ncccn2)nc1OCCO [Bosentan]
effect on blood pressure [2]: decreased blood pressure

CCCOc1ccc2c(c1)[C@@H](c1ccc(OC)cc1OCC(=O)O)[C@H](C(=O)O)[C@H]2c1ccc2c(c1)OCO2 [SB-209670]
reduction in neointimal formation relative to control animals (neointimal formation): 50%
